Patent publication US7875587B2, “Peptide analogues of GIP for treatment of diabetes, insulin resistance and obesity” (UUTECH Limited, priority 2004, dated 2011)

Experiments:
DPP IV = molecular target: T1, DPP IV (Sus scrofa, UniProt P22411); assay: Degradation of GIP and analogues by DPP IV (HPLC); format: in vitro ADME
T1 construct: purchased Sigma (Poole, Dorset, UK)
Experimental: Degradation of GIP and Tyr^1-glucitol GIP by DPP IV. HPLC-purified GIP or Tyr^1-glucitol GIP were incubated at 37° C. with DPP-IV (5 mU) for various time periods in a reaction mixture made up to 500 μl with 50 mmol/l triethanolamine-HCl, pH 7.8 (final peptide concentration 1 mmol/l). Enzymatic reactions were terminated after 0, 2, 4 and 12 hours by addition of 5 μl of 10% (v/v) TFA/water. Samples were made up to a final volume of 1.0 ml with 0.12% (v/v) TFA and stored at −20° C. prior to HPLC analysis.
(§1) HPLC analysis of degraded GIP and Tyr^1-glucitol GIP. […] Using 0.1% (v/v) TFA in 70% acetonitrile/H20, the concentration of acetonitrile in the eluting solvent was raised from 0% to 31.5% over 15 min, to 38.5% over 30 minutes and from 38.5% to 70% over 5 minutes, using linear gradients. The absorbance was monitored at 206 nm and peak areas evaluated using a model 2221 LKB integrator. Samples recovered manually were concentrated using a Speed-Vac concentrator.
(§2) Electrospray ionization-mass spectrometry (ESI-MS) was carried out as described in Example 2. Degradation of GIP and novel GIP analogues by DPP IV and human plasma was carried out as described in Example 2.

[1] = Degradation of GIP and analogues by human plasma (HPLC); format: in vitro ADME
Experimental: Degradation of GIP and Tyr^1-glucitol GIP by human plasma. […] […] The reactions were terminated by addition of 5 μl of TFA and the final volume adjusted to 1.0 ml using 0.1% v/v TFA/water. Samples were centrifuged (13,000 g, 5 minutes) and the supernatant applied to a C-18 Sep-Pak cartridge (Millipore-Waters) which was previously primed and washed with 0.1% (v/v) TFA/water. […] The volume was adjusted to 1.0 ml with 0.12% (v/v) TFA/water prior to HPLC purification.
as §1, §2

T1 sequence (P22411 whole entry): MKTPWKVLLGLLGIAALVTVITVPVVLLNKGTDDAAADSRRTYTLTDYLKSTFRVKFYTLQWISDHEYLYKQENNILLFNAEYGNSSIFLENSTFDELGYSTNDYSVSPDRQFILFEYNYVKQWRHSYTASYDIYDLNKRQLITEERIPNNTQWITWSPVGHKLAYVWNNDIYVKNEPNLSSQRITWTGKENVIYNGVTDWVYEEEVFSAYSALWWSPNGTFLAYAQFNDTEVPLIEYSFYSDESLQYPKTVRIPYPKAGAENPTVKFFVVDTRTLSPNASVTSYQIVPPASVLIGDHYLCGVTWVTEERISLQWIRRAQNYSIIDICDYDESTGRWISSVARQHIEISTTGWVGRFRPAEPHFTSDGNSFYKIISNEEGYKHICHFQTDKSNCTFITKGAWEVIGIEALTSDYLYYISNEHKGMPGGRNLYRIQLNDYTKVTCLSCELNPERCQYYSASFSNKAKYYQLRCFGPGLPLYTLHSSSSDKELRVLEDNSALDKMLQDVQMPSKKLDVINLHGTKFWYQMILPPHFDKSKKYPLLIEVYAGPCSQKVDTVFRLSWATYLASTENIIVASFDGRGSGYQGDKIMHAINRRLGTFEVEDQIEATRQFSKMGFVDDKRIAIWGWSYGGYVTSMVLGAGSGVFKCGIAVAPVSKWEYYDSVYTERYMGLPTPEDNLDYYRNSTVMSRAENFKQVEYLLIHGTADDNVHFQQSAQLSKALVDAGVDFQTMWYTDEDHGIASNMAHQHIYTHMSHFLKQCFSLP

Molecule | resistance to in vitro degradation with DPP IV relative to native GIP (DPP IV; Example 3, summary of Table 1) | % Intact peptide remaining after time (h) (DPP IV; incubation with DPP IV, 0 h) | remaining at 2 h, 1 mmol/l (DPP IV; isolated enzyme dpp iv, pH 7.8, incubation with DPP IV, 2 h, read-out: % Intact peptide remaining after time (h)) | remaining at 4 h, 1 mmol/l (DPP IV; isolated enzyme dpp iv, pH 7.8, incubation with DPP IV, 4 h, read-out: % Intact peptide remaining after time (h)) | remaining at 8 h, 1 mmol/l (DPP IV; isolated enzyme dpp iv, pH 7.8, incubation with DPP IV, 8 h, read-out: % Intact peptide remaining after time (h)) | effect of DPP IV inhibitor on degradation of GIP by plasma [1]
CC[C@H](C)[C@H](NC(=O)[C@H](CO)NC(=O)[C@H](Cc1ccc(O)cc1)NC(=O)[C@H](CC(=O)O)NC(=O)[C@H](CO)NC(=O)[C@@H](NC(=O)[C@H](Cc1ccccc1)NC(=O)[C@@H](NC(=O)CNC(=O)[C@H](CCC(=O)O)NC(=O)[C@H](C)NC(=O)[C@H](Cc1ccc(O)cc1)NC(C)=O)[C@@H](C)O)[C@@H](C)CC)C(=O)N[C@@H](C)C(=O)N[C@@H](CCSC)C(=O)N[C@@H](CC(=O)O)C(=O)N[C@@H](CCCCN)C(=O)N[C@H](C(=O)N[C@@H](Cc1c[nH]cn1)C(=O)N[C@@H](CCC(N)=O)C(=O)N[C@@H](CCC(N)=O)C(=O)N[C@@H](CC(=O)O)C(=O)N[C@@H](Cc1ccccc1)C(=O)N[C@H](C(=O)N[C@@H](CC(N)=O)C(=O)N[C@@H](Cc1c[nH]c2ccccc12)C(=O)N[C@@H](CC(C)C)C(=O)N[C@@H](CC(C)C)C(=O)N[C@@H](C)C(=O)N[C@@H](CCC(N)=O)C(=O)N[C@@H](CCCCN)C(=O)NCC(=O)N[C@@H](CCCCN)C(=O)N[C@@H](CCCCN)C(=O)N[C@@H](CC(N)=O)C(=O)N[C@@H](CC(=O)O)C(=O)N[C@@H](Cc1c[nH]c2ccccc12)C(=O)N[C@@H](CCCCN)C(=O)N[C@@H](Cc1c[nH]cn1)C(=O)N[C@@H](CC(N)=O)C(=O)N[C@H](C(=O)N[C@H](C(=O)N[C@@H](CCC(N)=O)C(=O)O)[C@@H](C)O)[C@@H](C)CC)C(C)C)[C@@H](C)CC [N-Acetyl-GIP] | more resistant than native GIP | 100% | 100% | 100% | 100% | 
Ile-Pro-Ile [diprotin A, reference compound] |  |  |  |  |  | completely inhibited degradation of the peptide by plasma
